pIC50: −log10 of the molar value. Like-named read-outs stand apart in the source and are kept apart here.
Assays:
Format in all cases: binding
[1] = biological target: T1, DNA-dependent protein kinase (DNA-PK) (Homo sapiens, UniProt P78527); assay: kinobeads assay, DNA-PK
T1 construct: endogenous in cells; host or cells: Jurkat, clone E6-1 (ATCC TIB-152) cell lysate
Outline: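 Competitive binding in Jurkat cell lysate (5 mg/mL protein) against beads carrying an immobilized phenylmorpholin-chromen ligand, in DP buffer pH 7.4 with NP40, DTT and NaF. Bead-bound kinases were eluted and quantified by antibody dot blot with infrared detection, and IC50 was taken from dose-response curves of a 1:3 dilution series.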

PI3Kalpha (PI3Ka) = biological target: T2, PI3Kalpha (PI3Ka) (Homo sapiens, UniProt P42336); assay: kinobeads assay, PI3Kalpha; conditions: for PI3Ka: Further Kinobeads Data
T2 construct: endogenous in cells; host or cells: cell lysate
Outline: (§1)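 Competitive pull-down in cell lysate: compound (various conc.) + phenylmorpholin-chromen affinity beads, incubate, separate beads, elute. Multiplexed immunodetection of bound kinases; dose-response fit → IC50.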

PI3 Kbeta (PI3 Kb) = biological target: T3, PI3 Kbeta (PI3 Kb) (Homo sapiens, UniProt P42338); assay: kinobeads assay, PI3Kbeta
T3 construct: endogenous in cells; host or cells: cell lysate
Outline: as §1

PI3 Kgamma (PI3 Kg) = biological target: T4, PI3 Kgamma (PI3 Kg) (Homo sapiens, UniProt P48736); assay: kinobeads assay, PI3Kgamma
T4 construct: endogenous in cells; host or cells: cell lysate
Outline: as §1

[2] = Further Kinobeads Data, read-out: DNAPK
[3] = Further Kinobeads Data, read-out: PI3Kb
[4] = Further Kinobeads Data, read-out: PI3Kg
[5] = kinobeads assay, Table 4, read-out: Inhibition values (IC50) DNA-PK
[6] = kinobeads assay, Table 6, read-out: Inhibition values (IC50) DNAPK
[7] = kinobeads assay, Table 6, read-out: Inhibition values (IC50) PI3Kb
[8] = kinobeads assay, Table 6, read-out: Inhibition values (IC50) PI3Kg

T2 sequence (P42336 whole entry): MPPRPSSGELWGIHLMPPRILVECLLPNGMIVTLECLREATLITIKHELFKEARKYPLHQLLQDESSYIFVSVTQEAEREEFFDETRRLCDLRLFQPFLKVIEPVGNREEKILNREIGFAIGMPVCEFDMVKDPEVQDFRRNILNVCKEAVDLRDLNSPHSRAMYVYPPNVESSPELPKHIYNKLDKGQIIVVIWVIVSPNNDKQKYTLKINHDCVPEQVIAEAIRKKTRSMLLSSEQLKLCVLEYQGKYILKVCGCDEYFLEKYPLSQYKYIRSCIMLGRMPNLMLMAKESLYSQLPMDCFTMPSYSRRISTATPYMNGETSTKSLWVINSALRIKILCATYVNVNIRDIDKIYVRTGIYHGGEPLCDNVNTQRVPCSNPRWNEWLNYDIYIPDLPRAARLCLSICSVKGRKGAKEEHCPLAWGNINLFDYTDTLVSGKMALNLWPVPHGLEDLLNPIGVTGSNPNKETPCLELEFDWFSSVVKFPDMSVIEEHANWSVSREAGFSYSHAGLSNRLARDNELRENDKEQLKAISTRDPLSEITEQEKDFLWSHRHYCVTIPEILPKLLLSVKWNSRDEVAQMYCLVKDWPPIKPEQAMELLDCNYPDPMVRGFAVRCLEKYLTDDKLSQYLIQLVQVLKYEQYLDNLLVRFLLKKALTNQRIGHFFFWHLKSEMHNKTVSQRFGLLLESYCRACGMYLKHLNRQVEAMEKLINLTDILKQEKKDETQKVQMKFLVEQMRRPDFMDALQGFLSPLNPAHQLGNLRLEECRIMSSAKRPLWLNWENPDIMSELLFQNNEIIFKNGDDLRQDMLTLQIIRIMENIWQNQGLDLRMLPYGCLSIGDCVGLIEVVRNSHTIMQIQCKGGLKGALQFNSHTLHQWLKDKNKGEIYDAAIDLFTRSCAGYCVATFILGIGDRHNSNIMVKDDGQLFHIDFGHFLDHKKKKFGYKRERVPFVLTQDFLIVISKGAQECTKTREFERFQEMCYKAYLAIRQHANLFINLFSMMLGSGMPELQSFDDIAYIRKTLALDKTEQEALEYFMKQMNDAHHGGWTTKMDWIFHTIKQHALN
T2 sequence (P27986 whole entry partner): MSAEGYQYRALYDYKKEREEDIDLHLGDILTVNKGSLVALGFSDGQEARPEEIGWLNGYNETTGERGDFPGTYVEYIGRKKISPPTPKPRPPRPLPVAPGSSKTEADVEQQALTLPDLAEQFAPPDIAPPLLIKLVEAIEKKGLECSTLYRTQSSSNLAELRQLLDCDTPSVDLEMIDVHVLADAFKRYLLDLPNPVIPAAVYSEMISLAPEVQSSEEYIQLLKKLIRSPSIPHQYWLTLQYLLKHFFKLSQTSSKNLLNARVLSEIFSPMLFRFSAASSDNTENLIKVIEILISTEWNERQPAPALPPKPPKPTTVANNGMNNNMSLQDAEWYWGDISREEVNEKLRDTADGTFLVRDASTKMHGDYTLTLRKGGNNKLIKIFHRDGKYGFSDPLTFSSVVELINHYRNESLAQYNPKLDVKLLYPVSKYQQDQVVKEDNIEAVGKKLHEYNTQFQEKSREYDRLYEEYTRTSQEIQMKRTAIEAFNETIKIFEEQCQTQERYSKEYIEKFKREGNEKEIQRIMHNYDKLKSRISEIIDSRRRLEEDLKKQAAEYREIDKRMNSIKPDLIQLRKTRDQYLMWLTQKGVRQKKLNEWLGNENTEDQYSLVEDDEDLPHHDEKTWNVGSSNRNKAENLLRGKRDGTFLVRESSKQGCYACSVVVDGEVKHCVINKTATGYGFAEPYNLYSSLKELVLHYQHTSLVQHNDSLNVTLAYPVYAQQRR
T3 sequence (P42338 whole entry): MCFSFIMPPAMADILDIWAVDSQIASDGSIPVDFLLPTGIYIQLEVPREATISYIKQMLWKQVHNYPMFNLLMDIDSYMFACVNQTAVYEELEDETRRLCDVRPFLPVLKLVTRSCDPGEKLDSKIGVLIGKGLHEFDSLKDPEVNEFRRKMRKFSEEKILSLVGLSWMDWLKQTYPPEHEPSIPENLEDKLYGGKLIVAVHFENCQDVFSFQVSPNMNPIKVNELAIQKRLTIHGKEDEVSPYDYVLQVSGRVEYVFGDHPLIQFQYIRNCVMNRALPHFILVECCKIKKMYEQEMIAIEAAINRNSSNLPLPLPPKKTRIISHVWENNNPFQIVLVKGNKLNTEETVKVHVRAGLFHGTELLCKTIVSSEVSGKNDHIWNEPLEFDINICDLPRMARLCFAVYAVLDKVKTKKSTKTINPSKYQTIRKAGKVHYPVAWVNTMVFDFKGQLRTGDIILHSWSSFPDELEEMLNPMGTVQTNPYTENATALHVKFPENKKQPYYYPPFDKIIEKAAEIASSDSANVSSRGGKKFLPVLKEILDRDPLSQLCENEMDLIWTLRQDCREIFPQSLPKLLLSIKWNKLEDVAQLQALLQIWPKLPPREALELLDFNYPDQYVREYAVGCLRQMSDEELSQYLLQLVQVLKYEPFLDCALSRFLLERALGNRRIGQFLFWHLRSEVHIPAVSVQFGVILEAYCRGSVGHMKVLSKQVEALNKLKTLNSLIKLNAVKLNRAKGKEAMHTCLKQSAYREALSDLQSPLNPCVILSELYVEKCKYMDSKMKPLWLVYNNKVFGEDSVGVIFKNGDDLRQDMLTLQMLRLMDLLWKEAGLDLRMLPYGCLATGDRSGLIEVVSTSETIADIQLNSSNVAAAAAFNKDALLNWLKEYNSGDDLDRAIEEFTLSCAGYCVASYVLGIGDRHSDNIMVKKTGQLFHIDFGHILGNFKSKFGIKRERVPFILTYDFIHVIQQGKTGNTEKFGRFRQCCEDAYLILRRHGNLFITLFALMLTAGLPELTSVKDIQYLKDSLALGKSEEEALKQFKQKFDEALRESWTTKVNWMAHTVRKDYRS
T3 sequence (P27986 whole entry partner): as the sequence (P27986 whole entry partner) above
T4 sequence (P48736 whole entry): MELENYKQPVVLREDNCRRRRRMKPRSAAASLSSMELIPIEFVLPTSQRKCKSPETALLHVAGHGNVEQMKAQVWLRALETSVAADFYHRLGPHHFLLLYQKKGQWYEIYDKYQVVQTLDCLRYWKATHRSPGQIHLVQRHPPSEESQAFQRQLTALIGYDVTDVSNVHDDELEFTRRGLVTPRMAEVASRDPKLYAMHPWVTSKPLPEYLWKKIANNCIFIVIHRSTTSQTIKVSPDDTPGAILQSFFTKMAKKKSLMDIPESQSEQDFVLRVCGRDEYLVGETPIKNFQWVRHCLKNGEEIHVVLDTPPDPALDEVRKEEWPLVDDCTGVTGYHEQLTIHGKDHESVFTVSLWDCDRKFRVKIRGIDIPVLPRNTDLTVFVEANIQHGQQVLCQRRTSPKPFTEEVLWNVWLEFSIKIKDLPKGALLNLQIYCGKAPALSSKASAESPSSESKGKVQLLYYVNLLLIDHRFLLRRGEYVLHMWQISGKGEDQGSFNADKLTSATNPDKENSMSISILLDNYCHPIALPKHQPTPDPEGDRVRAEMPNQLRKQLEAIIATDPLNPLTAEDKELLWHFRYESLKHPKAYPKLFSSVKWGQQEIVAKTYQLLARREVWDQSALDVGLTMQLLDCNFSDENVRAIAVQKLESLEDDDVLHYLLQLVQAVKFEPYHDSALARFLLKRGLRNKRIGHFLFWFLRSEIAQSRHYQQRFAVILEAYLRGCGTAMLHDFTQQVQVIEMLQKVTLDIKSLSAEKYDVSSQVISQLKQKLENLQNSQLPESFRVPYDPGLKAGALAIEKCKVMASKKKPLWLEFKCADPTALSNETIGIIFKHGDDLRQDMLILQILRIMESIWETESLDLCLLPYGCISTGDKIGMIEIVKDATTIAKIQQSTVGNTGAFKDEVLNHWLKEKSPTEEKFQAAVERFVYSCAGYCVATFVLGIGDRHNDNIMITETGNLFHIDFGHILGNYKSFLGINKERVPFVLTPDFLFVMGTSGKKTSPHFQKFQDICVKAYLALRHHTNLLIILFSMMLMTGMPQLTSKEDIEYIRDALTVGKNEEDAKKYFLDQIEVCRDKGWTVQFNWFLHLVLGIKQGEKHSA

| SMILES | pIC50 [1, 2] | PI3Ka (PI3Kalpha (PI3Ka)) | pIC50 (PI3 Kbeta (PI3 Kb); [3]) | pIC50 (PI3 Kgamma (PI3 Kg); [4]) | pIC50 [1, 5] | pIC50 [1, 6] | Inhibition values (IC50) PI3Ka (PI3Kalpha (PI3Ka); kinobeads assay, Table 6) | pIC50 (PI3 Kbeta (PI3 Kb); [7]) | pIC50 (PI3 Kgamma (PI3 Kg); [8]) | pIC50 (PI3Kalpha (PI3Ka); kinobeads assay, Table 6, read-out: Inhibition values (IC50) PI3Ka) |
| --- | --- | --- | --- | --- | --- | --- | --- | --- | --- | --- |
| CC(=O)N1Cc2nc(-c3ccc(NC(=O)NC4CC4)cc3F)nc(N3CCOC[C@@H]3C)c2C1 [Example 155, (S)-1-(4-(6-acetyl-4-(3-methylmorpholino)-6,7-dihydro-5H-pyrrolo[3,4-d]pyrimidin-2-yl)-3-fluorophenyl)-3-cyclopropylurea] | < 5.00 | D (D >10 μM) | < 5.00 | < 5.00 | – | – | – | – | – | – |
| CCOC(=O)N1Cc2nc(-c3ccc(NC(=O)NCCF)cc3F)nc(N3CCOCC3)c2C1 [Example 170, ethyl 2-(2-fluoro-4-(3-(2-fluoroethyl)ureido)phenyl)-4-morpholino-5H-pyrrolo[3,4-d]pyrimidine-6(7H)-carboxylate] | 5.00 to 6.00 | D (D >10 μM) | < 5.00 | < 5.00 | – | – | – | – | – | – |
| CCNC(=O)Nc1ccc(-c2nc3c(c(N4CCOC[C@@H]4C)n2)CCN(C)C3)cc1 [Example 35, (S)-1-ethyl-3-(4-(7-methyl-4-(3-methylmorpholino)-5,6,7,8-tetrahydropyrido[3,4-d]pyrimidin-2-yl)phenyl)urea] | – | – | – | – | < 5.00 | < 5.00 | D (D >10 μM) | < 5.00 | < 5.00 | – |
| C[C@H]1COCCN1c1nc(-c2ccc(NC(=O)NC3CC3)cc2)nc2c1CN(CC(C)(C)C)C2 [Example 25, (S)-1-cyclopropyl-3-(4-(4-(3-methylmorpholino)-6-neopentyl-6,7-dihydro-5H-pyrrolo[3,4-d]pyrimidin-2-yl)phenyl)urea] | – | – | – | – | < 5.00 | < 5.00 | D (D >10 μM) | < 5.00 | < 5.00 | – |
| C[C@H]1COCCN1c1nc(-c2ccc(NC(=O)Nc3ccc(F)cc3)cc2)nc2c1CN(C)C2 [Example 52, (S)-1-(4-fluorophenyl)-3-(4-(6-methyl-4-(3-methylmorpholino)-6,7-dihydro-5H-pyrrolo[3,4-d]pyrimidin-2-yl)phenyl)urea] | – | – | – | – | < 5.00 | < 5.00 | D (D >10 μM) | < 5.00 | < 5.00 | – |
| CCNC(=O)Nc1ccc(-c2nc3c(c(N4CCOC[C@@H]4C)n2)CCN(CC)C3)cc1 [Example 27, (S)-1-ethyl-3-(4-(7-ethyl-4-(3-methylmorpholino)-5,6,7,8-tetrahydropyrido[3,4-d]pyrimidin-2-yl)phenyl)urea] | – | – | – | – | < 5.00 | < 5.00 | – | 5.00 to 6.00 | 5.00 to 6.00 | 5.00 to 6.00 |
| CCOC(=O)N1Cc2nc(-c3ccc(NC(=O)NC4CC4)cc3F)nc(N3CCOC[C@H]3C)c2C1 [Example 179, (R)-ethyl 2-(4-(3-cyclopropylureido)-2-fluorophenyl)-4-(3-methylmorpholino)-5H-pyrrolo[3,4-d]pyrimidine-6(7H)-carboxylate] | < 5.00 | D (D >10 μM) | < 5.00 | < 5.00 | – | – | – | – | – | – |
| CCNC(=O)Nc1ccc(-c2nc3c(c(N4CCOC[C@@H]4C)n2)CCNC3)c(F)c1 [Example 164, (S)-1-ethyl-3-(3-fluoro-4-(4-(3-methylmorpholino)-5,6,7,8-tetrahydropyrido[3,4-d]pyrimidin-2-yl)phenyl)urea] | < 5.00 | D (D >10 μM) | < 5.00 | < 5.00 | – | – | – | – | – | – |

Source: patent US8785457B2 (Cellzome Limited, priority 2009, dated 2014)
